Experimental findings from patent US8524750B2, “(Pyrazol-3-yl)-1,3,4-thiadiazol-2-amine and (pyrazol-3-yl)-1,3,4-thiazol-2-amine compounds” (Glaxo Group Limited, priority 2009, dated 2013) are described below.

Converted amounts (≈) assume the structure as drawn. “And” between values parts separate entries of the source, which are not always exact repeats. Equal values may be shown once. Read-outs that look alike come from different tables or passages of the source.

Assay [1] relates to Mycobacterium tuberculosis H37Rv. Kind of assay: Mycobacterium tuberculosis H37Rv Inhibition Assay (Whole Cell Assay). As to conditions: ATCC 25618 / H37Rv, H37Rv strain (ATCC25618), Middlebrook 7H9, six days at 37° C., resazurin fluorescence after 48 hours. The class given is cell-based.
Assay [2] deals with T1, Mycobacterium tuberculosis InhA (Mycobacterium tuberculosis, UniProt P9WGR1).
T1 construct: made in house; host or cells: E. coli
T1 sequence (P9WGR1 whole entry, looked up): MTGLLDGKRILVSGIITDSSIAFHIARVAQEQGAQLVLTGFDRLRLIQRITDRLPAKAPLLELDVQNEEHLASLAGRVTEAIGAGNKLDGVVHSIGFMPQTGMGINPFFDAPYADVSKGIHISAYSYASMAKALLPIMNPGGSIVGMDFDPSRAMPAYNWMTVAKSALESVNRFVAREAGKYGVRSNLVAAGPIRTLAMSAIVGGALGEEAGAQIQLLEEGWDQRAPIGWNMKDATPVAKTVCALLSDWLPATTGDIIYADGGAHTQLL
Briefly: Mycobacterium tuberculosis InhA Inhibition Assay (Enzyme Assay). It is filed as biochemical. Particulars: 5 nM InhA, 50 μM DDCoA, 50 μM NADH, PIPES buffer pH 6.8, initial velocities of NADH consumption. The procedure:
Mycobacterium tuberculosis InhA Inhibition Assay (Enzyme Assay)
InhA is able to reduce 2-trans enoyl-CoA esters with concomitant oxidation of NADH to NAD^+. The assay format is based on the kinetic detection of NADH consumption.
Assay for InhA inhibition is carried out with mycobacterium recombinant protein expressed and purified form E. coli. Standard assay conditions for the determination of kinetic constants and inhibitors activity use 5 nM of InhA, 50 μM of Dodecenoyl-CoA synthesized and purified as described by Quernard et al (DDCoA) and 50 μM of NADH as substrates, and it is carried out in 30 mM PIPES buffer pH 6.8, containing 0.05% of BSA. […] Triclosan is used as positive control in every experiment. One μl of compounds is added to the wells containing 25 μl of the DDCoA+NADH mix, the reaction is started by adding 50 μl of the enzyme solution. Fluorescence from NADH is followed at room temperature during 20 minutes in a fluorescent plate reader (excitation at 340 nm; emission at 480 nm). IC50 values are determined using initial velocities of NADH consumption.
Quernard A, Sacchettini J C, Dessen A, et al. Enzymatic characterization of the target for isoniazid in Mycobacterium tuberculosis. Biochemistry 1995; 34:8235-41.

Usually MIC stands for the least concentration at which growth counts as inhibited. High values mean a less susceptible organism, low ones a more susceptible organism. As usually defined, the IC50 is the concentration that gives 50% inhibition.

In assay [1], `Cc1csc(C(C)(O)c2nnc(Nc3ccn(Cc4c(F)ccc(C)c4F)n3)s2)n1` (stereo not shown) [Example 84, 1-[5-({1-[(2,6-difluoro-3-methylphenyl)methyl]-1H-pyrazol-3-yl}amino)-1,3,4-thiadiazol-2-yl]-1-(4-methyl-1,3-thiazol-2-yl)ethanol] yielded an MIC of at most 1 µM. Also, the IC50 in assay [2] (IC50 value) is below 111 nM.

`Cc1csc(C(C)(O)c2nnc(Nc3ccn(Cc4cccc(C)c4F)n3)s2)n1` (stereo not shown) [Example 83, 1-[5-({1-[(2-fluoro-3-methylphenyl)methyl]-1H-pyrazol-3-yl}amino)-1,3,4-thiadiazol-2-yl]-1-(4-methyl-1,3-thiazol-2-yl)ethanol] registered an MIC in assay [1] of at most 1 µM. In assay [2] (IC50 value), this molecule showed an IC50 below 116 nM.

The molecule `Cc1cc(C)n(C(C)c2nnc(Nc3ccn(Cc4ccccc4C(F)(F)F)n3)s2)n1` (stereo not shown) [Example 1, 5-[1-(3,5-dimethyl-1H-pyrazol-1-yl)ethyl]-N-(1-{[2-(trifluoromethyl)phenyl]methyl}-1H-pyrazol-3-yl)-1,3,4-thiadiazol-2-amine] registered an MIC in assay [1] of 4 to 10 µM (≈ 1.79 to 4.47 µg/mL). Moreover, in assay [2] (read-out: IC50 value), the IC50 was below 112 nM.

Take `Cc1csc(C(C)(O)c2nnc(Nc3ccn(Cc4cccc(N)c4F)n3)s2)n1` (stereo not shown) [Example 88, 1-[5-({1-[(3-amino-2-fluorophenyl)methyl]-1H-pyrazol-3-yl}amino)-1,3,4-thiadiazol-2-yl]-1-(4-methyl-1,3-thiazol-2-yl)ethanol]: the IC50 in assay [2] (read-out: IC50 value) was below 116 nM.

Turning to `Cc1ccn(Cc2nnc(Nc3ccn(Cc4c(Cl)cccc4Cl)n3)s2)n1` [Example 57, N-{1-[(2,6-dichlorophenyl)methyl]-1H-pyrazol-3-yl}-5-[(3-methyl-1H-pyrazol-1-yl)methyl]-1,3,4-thiadiazol-2-amine], the MIC in assay [1] was above 10 µM. For the same molecule, the IC50 in assay [2] (read-out: IC50 value) was below 119 nM.

In turn, `Cc1csc(C(C)(C)c2nnc(Nc3ccn(Cc4c(F)cccc4Cl)n3)s2)n1` [Example 74, N-{1-[(2-chloro-6-fluorophenyl)methyl]-1H-pyrazol-3-yl}-5-[1-methyl-1-(4-methyl-1,3-thiazol-2-yl)ethyl]-1,3,4-thiadiazol-2-amine] yielded an MIC in assay [1] of 1 to 4 µM (≈ 0.449 to 1.8 µg/mL). Further, in assay [2] (IC50 value), the IC50 was below 111 nM.

Consider `Cc1cc(C)n([C@@H](C)c2nnc(Nc3ccn(Cc4c(F)cccc4Cl)n3)s2)n1` (single isomer, unassigned) [Example 69], for which, in assay [1], the MIC lay in the range of 1 to 4 µM (≈ 0.432 to 1.73 µg/mL). Further, the IC50 in assay [2] (read-out: IC50 value) is below 116 nM.

For `Cc1cc(C)n(Cc2cnc(Nc3ccn(Cc4c(F)cccc4Cl)n3)s2)n1` [Example 37, N-{1-[(2-chloro-6-fluorophenyl)methyl]-1H-pyrazol-3-yl}-5-[(3,5-dimethyl-1H-pyrazol-1-yl)methyl]-1,3-thiazol-2-amine], the MIC in assay [1] was 4 to 10 µM (≈ 1.67 to 4.17 µg/mL). The IC50 in assay [2] (read-out: IC50 value) is below 120 nM.

Take `Cc1csc([C@@](C)(O)c2nnc(Nc3ccn(Cc4c(F)cccc4F)n3)s2)n1` (single isomer, unassigned) [Example 90]: in assay [1], the MIC is above 10 µM. Also, the IC50 in assay [2] (IC50 value) lay within 115 to 230 nM.

As for `CCOc1c(F)ccc(F)c1Cn1ccc(Nc2nnc(C(C)n3nc(C)cc3C)s2)n1` (stereo not shown) [Example 82, 5-[1-(3,5-dimethyl-1H-pyrazol-1-yl)ethyl]-N-(1-{[2-(ethyloxy)-3,6-difluorophenyl]methyl}-1H-pyrazol-3-yl)-1,3,4-thiadiazol-2-amine], in assay [1], the MIC lay within 4 to 10 µM (≈ 1.84 to 4.6 µg/mL). The molecule also gave an IC50 in assay [2] (IC50 value) below 109 nM.

Turning to `Cc1cc([N+](=O)[O-])nn1Cc1nnc(Nc2ccn(Cc3c(Cl)cccc3Cl)n2)s1` [Example 65, N-{1-[(2,6-dichlorophenyl)methyl]-1H-pyrazol-3-yl}-5-[1-(5-methyl-3-nitro-1H-pyrazol-1-yl)methyl]-1,3,4-thiadiazol-2-amine], in assay [2] (read-out: IC50 value), the IC50 was above 1070 nM.

Molecule `Cc1cc([N+](=O)[O-])nn1C(C)c1nnc(Nc2ccn(Cc3ccccc3Cl)n2)s1` (stereo not shown) [Example 40, N-{1-[(2-chlorophenyl)methyl]-1H-pyrazol-3-yl}-5-[1-(5-methyl-3-nitro-1H-pyrazol-1-yl)ethyl]-1,3,4-thiadiazol-2-amine] gave an MIC in assay [1] of 1 to 4 µM (≈ 0.445 to 1.78 µg/mL). For the same molecule, in assay [2] (read-out: IC50 value), the IC50 was below 112 nM.

With `Cc1cc(C)n(C(C)c2nnc(Nc3ccn(Cc4cccc(Cl)c4F)n3)s2)n1` (stereo not shown) [Example 7, N-{1-[(3-chloro-2-fluorophenyl)methyl]-1H-pyrazol-3-yl}-5-[1-(3,5-dimethyl-1H-pyrazol-1-yl)ethyl]-1,3,4-thiadiazol-2-amine], the MIC in assay [1] is at most 1 µM. Further, the IC50 in assay [2] (read-out: IC50 value) is below 116 nM.

`Cc1cc(C(F)(F)F)nn1Cc1nnc(Nc2ccn(Cc3ccccc3Cl)n2)s1` [Example 48, N-{1-[(2-chlorophenyl)methyl]-1H-pyrazol-3-yl}-5-{[5-methyl-3-(trifluoromethyl)-1H-pyrazol-1-yl]methyl}-1,3,4-thiadiazol-2-amine]: in assay [1], the MIC was above 10 µM. The molecule further displayed an IC50 in assay [2] (IC50 value) of 110 to 220 nM.

As for `Cc1cc(C)n(C(C)c2nnc(Nc3ccn(Cc4c(F)ccc(N)c4F)n3)s2)n1` (stereo not shown) [Example 87, N-{1-[(3-amino-2,6-difluorophenyl)methyl]-1H-pyrazol-3-yl}-5-[1-(3,5-dimethyl-1H-pyrazol-1-yl)ethyl]-1,3,4-thiadiazol-2-amine], in assay [1], the MIC was in the range of 1 to 4 µM (≈ 0.43 to 1.72 µg/mL). Besides, in assay [2] (IC50 value), the IC50 was below 116 nM.

Take `Cc1ccn(C(C)c2nnc(Nc3ccn(Cc4ccc(F)cc4Cl)n3)s2)n1` (stereo not shown) [Example 18, N-{1-[(2-chloro-4-fluorophenyl)methyl]-1H-pyrazol-3-yl}-5-[1-(3-methyl-1H-pyrazol-1-yl)ethyl]-1,3,4-thiadiazol-2-amine]: in assay [1], the MIC is above 10 µM. The molecule also showed an IC50 in assay [2] (IC50 value) of 120 to 239 nM.

Turning to `Cc1csc(C(C)c2nnc(Nc3ccn(Cc4cccc(Cl)c4F)n3)s2)n1` (stereo not shown) [Example 33, N-{1-[(3-chloro-2-fluorophenyl)methyl]-1H-pyrazol-3-yl}-5-[1-(4-methyl-1,3-thiazol-2-yl)ethyl]-1,3,4-thiadiazol-2-amine], the MIC in assay [1] is 1 to 4 µM (≈ 0.435 to 1.74 µg/mL). For the same molecule, the IC50 in assay [2] (read-out: IC50 value) is below 115 nM.

`O=[N+]([O-])c1ccn(Cc2nnc(Nc3ccn(Cc4ccccc4Cl)n3)s2)n1` [Example 49, N-{1-[(2-chlorophenyl)methyl]-1H-pyrazol-3-yl}-5-[(3-nitro-1H-pyrazol-1-yl)methyl]-1,3,4-thiadiazol-2-amine]: the MIC in assay [1] is above 10 µM. In addition, the IC50 in assay [2] (read-out: IC50 value) is below 120 nM.

With `Cc1csc(C(C)c2nnc(Nc3ccn(Cc4cccc(F)c4F)n3)s2)n1` (stereo not shown) [Example 16, N-{1-[(2,3-difluorophenyl)methyl]-1H-pyrazol-3-yl}-5-[1-(4-methyl-1,3-thiazol-2-yl)ethyl]-1,3,4-thiadiazol-2-amine], in assay [1], the MIC lay in the range of 1 to 4 µM (≈ 0.418 to 1.67 µg/mL). For the same molecule, in assay [2] (read-out: IC50 value), the IC50 was below 119 nM.

`Cc1csc(C(C)(O)c2nnc(Nc3ccn(Cc4c(F)cccc4Cl)n3)s2)n1` (racemic) [Example 30, 1-[5-({1-[(2-chloro-6-fluorophenyl)methyl]-1H-pyrazol-3-yl}amino)-1,3,4-thiadiazol-2-yl]-1-(4-methyl-1,3-thiazol-2-yl)ethanol] returned an MIC in assay [1] of at most 1 µM. In addition, in assay [2] (read-out: IC50 value), the IC50 is below 111 nM.

As for `Cc1csc(C(C)c2nnc(Nc3ccn(Cc4c(F)cccc4Cl)n3)s2)n1` (stereo not shown) [Example 29, N-{1-[(2-chloro-6-fluorophenyl)methyl]-1H-pyrazol-3-yl}-5-[1-(4-methyl-1,3-thiazol-2-yl)ethyl]-1,3,4-thiadiazol-2-amine], the MIC in assay [1] is 1 to 4 µM (≈ 0.435 to 1.74 µg/mL). The IC50 in assay [2] (read-out: IC50 value) was below 115 nM.

As to `Cc1cc(C)n(Cc2nnc(Nc3ccn(Cc4c(F)cccc4Cl)n3)s2)n1` [Example 51, N-{1-[(2-chloro-6-fluorophenyl)methyl]-1H-pyrazol-3-yl}-5-[(3,5-dimethyl-1H-pyrazol-1-yl)methyl]-1,3,4-thiadiazol-2-amine], in assay [1], the MIC is above 10 µM. In assay [2] (read-out: IC50 value), the IC50 was below 120 nM.

With `Cc1cc(C)n(C(C)c2nnc(Nc3ccn(Cc4cc(F)ccc4Cl)n3)s2)n1` (stereo not shown) [Example 36, N-{1-[(2-chloro-5-fluorophenyl)methyl]-1H-pyrazol-3-yl}-5-[1-(3,5-dimethyl-1H-pyrazol-1-yl)ethyl]-1,3,4-thiadiazol-2-amine], the MIC in assay [1] lay within 4 to 10 µM (≈ 1.73 to 4.32 µg/mL). The IC50 in assay [2] (read-out: IC50 value) was below 116 nM.

With `Cc1cc(C)n(C(C)c2nnc(Nc3ccn(Cc4ccc(F)cc4)n3)s2)n1` (stereo not shown) [Example 75, 5-[1-(3,5-dimethyl-1H-pyrazol-1-yl)ethyl]-N-{1-[(4-fluorophenyl)methyl]-1H-pyrazol-3-yl}-1,3,4-thiadiazol-2-amine], in assay [1], the MIC was above 10 µM. Also, the IC50 in assay [2] (IC50 value) lay in the range of 126 to 252 nM.

As for `Cc1ccn(C(C)c2nnc(Nc3ccn(Cc4ccccc4Br)n3)s2)n1` (stereo not shown) [Example 5, N-{1-[(2-bromophenyl)methyl]-1H-pyrazol-3-yl}-5-[1-(3-methyl-1H-pyrazol-1-yl)ethyl]-1,3,4-thiadiazol-2-amine], the MIC in assay [1] was 4 to 10 µM (≈ 1.78 to 4.44 µg/mL). For the same molecule, the IC50 in assay [2] (read-out: IC50 value) was below 113 nM.

For `Cc1csc([C@](C)(O)c2nnc(Nc3ccn(Cc4c(F)cccc4F)n3)s2)n1` (single isomer, unassigned) [Example 89], the IC50 in assay [2] (IC50 value) was 4.6 nM and < 115 nM.
